# Laboratory results as given in patent US20170137410A1, “FUSED CYCLOALKYL-PYRIMIDINE COMPOUNDS AND USES THEREOF” (Medivation Technologies, Inc., priority 2014, published 2017).
# pIC50: −log10 of the molar value.
# Experiments:
# Assay type in all cases: biochemical
# activated IR = target: T1, activated IR (Homo sapiens, UniProt P06213); experiment: In vitro IR enzymatic assay (ADP-Glo); settings: ATP 50 μM; for inhibition at 1 µM: compound 1 μM; for inhibition at 3 µM: compound 3 μM; for inhibition at 30 µM: compound 30 μM
# T1 construct: purchased Millipore 14-803
# Description: (§1) Inhibition of IGF-1R and IR kinases by compounds described herein were tested. The IC50 values were measured in vitro using an ADP-Glo kinase assay Kit (Promega). For the IGF-1R assay, active recombinant IGF-1R (Millipore #14-802) was used at 1 ng/reaction, the substrate IGF-1R tide (Millipore #12-527) was used at 125 μM and ATP was used at 100 μM. For the IR assay, active recombinant IR (Millipore #14-803) was used at 1 ng/reaction, the substrate Axl tide (Millipore #12-516) was used at 125 μM and ATP at 50 μM. Kinase reactions in both assays were conducted at 30° C. for 20 min with increasing concentrations of the test compounds.
# (§2) The assay results as the percent inhibition of binding are presented in Tables B2 and B3 for IGF-1R and IR respectively.
# Trk B = Trk B (Homo sapiens, UniProt Q16620); experiment: HotSpot kinase assay against Trk B; settings: HotSpot 33P assay, ATP 10 μM-30 μM
# Description: (§3) Kinase assays were performed using test compounds against a panel of Trk kinases: Trk A; Trk B; and Trk C. Each compound was tested at a concentration of 0.1 μM in single duplicate mode against the three kinases. Compounds were prepared as 10 mM stock solutions in DMSO prior to use in the assay. The control compound, staurosporine, was tested at 10 concentrations with three-fold serial dilution starting at 20 μM. IC50 values and curve fits were obtained using Prism (GraphPad Software). IC50 values were determined for staurosporine for comparison.
# (§4) The screening was performed using the “HotSpot” assay platform. The assay measures the conversion of a peptide substrate to ^33P-labelled phosphorylated product. Briefly, specific kinase/substrate pairs along with required cofactors were prepared in reaction buffer. Specifically, the substrate was prepared in reaction buffer (20 mM Hepes, pH 7.5; 10 mM MgCl2; 1 mM EGTA; 0.02% Brij35; 0.02 mg/mL BSA; 0.1 mM Na3VO4; 2 mM DTT; 1% DMSO), followed by delivery of any required cofactor to the resulting substrate solution. The corresponding kinase was delivered into the substrate solution and the reaction mixture was mixed gently. Compound was delivered into the reaction mixture, followed 15-20 min later by addition of a mixture of ATP (Sigma, St. Louis Mo.) and ^33P ATP (specific activity 0.01 μCi/μL final; Perkin Elmer, Waltham, Mass.) to a final concentration of 10 μM-30 μM to initiate the reaction. Reactions were carried out at RT for 120 min, followed by spotting of the reactions onto P81 ion exchange filter paper (Whatman #3698-915; Whatman Inc., Piscataway, N.J.). Unbound phosphate was removed by extensive washing of filters in 0.75% phosphoric acid. […] The percent of enzyme inhibition was calculated based on the percent of remaining kinase activity.
# Trk A = Trk A (Homo sapiens, UniProt P04629); experiment: HotSpot kinase assay against Trk A; settings: HotSpot 33P assay, ATP 10 μM-30 μM
# Description: as §3, §4
# activated IGF-1R = target: T2, activated IGF-1R (Homo sapiens, UniProt P08069); experiment: In vitro IGF-1R enzymatic assay (ADP-Glo); settings: ATP 100 μM; for inhibition at 1 µM: compound 1 μM; for inhibition at 3 µM: compound 3 μM; for inhibition at 10 µM: compound 10 μM; for inhibition at 30 µM: compound 30 μM
# T2 construct: purchased Millipore 14-802
# Description: as §1, §2
# Trk C = Trk C (Homo sapiens, UniProt Q16288); experiment: HotSpot kinase assay against Trk C; settings: HotSpot 33P assay, ATP 10 μM-30 μM
# Description: as §3, §4
# Trk A, sequence (P04629 33-796): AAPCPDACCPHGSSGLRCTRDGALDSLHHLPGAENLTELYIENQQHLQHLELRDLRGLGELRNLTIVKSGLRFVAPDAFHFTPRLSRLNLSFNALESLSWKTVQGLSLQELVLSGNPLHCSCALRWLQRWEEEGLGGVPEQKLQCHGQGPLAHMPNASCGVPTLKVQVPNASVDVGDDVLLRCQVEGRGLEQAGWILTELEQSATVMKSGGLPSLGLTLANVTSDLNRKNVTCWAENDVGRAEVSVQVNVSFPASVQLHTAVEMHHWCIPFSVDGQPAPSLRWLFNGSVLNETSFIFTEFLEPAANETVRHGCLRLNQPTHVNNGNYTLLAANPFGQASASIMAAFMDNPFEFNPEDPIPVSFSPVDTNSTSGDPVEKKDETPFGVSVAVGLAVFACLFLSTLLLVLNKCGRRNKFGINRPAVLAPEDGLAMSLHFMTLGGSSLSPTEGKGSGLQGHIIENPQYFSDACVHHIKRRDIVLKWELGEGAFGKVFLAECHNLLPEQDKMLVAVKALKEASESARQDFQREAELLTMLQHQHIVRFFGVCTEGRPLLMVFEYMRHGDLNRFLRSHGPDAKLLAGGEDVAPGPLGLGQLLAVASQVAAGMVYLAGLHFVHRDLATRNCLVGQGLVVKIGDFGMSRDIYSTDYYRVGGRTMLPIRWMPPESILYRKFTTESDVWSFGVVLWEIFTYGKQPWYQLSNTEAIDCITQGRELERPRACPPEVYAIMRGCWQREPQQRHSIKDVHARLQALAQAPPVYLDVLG
# T2 sequence (P08069 31-1367): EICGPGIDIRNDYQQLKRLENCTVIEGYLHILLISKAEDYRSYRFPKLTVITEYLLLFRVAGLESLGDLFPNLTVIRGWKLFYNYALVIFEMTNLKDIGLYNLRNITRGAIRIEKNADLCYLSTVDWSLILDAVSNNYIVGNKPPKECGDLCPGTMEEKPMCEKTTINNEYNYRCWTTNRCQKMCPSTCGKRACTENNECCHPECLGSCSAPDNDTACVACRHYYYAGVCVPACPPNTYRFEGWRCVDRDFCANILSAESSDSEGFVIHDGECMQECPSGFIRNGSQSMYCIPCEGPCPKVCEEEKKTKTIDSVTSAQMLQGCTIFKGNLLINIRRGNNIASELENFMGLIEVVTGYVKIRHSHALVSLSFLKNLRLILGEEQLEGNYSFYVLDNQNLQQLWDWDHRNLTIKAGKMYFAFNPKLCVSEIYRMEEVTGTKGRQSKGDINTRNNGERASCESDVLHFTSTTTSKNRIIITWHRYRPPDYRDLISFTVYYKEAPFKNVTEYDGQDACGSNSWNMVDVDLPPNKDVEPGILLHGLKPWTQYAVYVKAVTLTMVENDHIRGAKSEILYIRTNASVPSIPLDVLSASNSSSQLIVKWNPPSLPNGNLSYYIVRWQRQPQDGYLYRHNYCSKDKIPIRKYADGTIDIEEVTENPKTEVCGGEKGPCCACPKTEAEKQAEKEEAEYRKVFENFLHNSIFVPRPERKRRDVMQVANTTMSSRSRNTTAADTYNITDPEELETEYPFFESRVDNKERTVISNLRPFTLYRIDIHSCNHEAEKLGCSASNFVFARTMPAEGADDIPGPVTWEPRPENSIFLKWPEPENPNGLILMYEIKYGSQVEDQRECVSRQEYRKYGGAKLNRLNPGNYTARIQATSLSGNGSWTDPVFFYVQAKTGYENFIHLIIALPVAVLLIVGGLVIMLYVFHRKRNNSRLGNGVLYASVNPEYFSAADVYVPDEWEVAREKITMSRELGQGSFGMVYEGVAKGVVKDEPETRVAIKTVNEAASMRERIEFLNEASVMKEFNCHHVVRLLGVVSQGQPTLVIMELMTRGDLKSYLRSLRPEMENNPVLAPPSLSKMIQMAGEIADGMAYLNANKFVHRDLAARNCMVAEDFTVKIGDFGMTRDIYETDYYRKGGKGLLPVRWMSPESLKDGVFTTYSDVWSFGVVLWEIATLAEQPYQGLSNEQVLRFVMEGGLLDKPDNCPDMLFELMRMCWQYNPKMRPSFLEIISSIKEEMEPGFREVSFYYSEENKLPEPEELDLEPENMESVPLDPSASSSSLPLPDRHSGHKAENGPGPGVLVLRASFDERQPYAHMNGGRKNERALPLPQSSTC
# T1 sequence (P06213 28-1382): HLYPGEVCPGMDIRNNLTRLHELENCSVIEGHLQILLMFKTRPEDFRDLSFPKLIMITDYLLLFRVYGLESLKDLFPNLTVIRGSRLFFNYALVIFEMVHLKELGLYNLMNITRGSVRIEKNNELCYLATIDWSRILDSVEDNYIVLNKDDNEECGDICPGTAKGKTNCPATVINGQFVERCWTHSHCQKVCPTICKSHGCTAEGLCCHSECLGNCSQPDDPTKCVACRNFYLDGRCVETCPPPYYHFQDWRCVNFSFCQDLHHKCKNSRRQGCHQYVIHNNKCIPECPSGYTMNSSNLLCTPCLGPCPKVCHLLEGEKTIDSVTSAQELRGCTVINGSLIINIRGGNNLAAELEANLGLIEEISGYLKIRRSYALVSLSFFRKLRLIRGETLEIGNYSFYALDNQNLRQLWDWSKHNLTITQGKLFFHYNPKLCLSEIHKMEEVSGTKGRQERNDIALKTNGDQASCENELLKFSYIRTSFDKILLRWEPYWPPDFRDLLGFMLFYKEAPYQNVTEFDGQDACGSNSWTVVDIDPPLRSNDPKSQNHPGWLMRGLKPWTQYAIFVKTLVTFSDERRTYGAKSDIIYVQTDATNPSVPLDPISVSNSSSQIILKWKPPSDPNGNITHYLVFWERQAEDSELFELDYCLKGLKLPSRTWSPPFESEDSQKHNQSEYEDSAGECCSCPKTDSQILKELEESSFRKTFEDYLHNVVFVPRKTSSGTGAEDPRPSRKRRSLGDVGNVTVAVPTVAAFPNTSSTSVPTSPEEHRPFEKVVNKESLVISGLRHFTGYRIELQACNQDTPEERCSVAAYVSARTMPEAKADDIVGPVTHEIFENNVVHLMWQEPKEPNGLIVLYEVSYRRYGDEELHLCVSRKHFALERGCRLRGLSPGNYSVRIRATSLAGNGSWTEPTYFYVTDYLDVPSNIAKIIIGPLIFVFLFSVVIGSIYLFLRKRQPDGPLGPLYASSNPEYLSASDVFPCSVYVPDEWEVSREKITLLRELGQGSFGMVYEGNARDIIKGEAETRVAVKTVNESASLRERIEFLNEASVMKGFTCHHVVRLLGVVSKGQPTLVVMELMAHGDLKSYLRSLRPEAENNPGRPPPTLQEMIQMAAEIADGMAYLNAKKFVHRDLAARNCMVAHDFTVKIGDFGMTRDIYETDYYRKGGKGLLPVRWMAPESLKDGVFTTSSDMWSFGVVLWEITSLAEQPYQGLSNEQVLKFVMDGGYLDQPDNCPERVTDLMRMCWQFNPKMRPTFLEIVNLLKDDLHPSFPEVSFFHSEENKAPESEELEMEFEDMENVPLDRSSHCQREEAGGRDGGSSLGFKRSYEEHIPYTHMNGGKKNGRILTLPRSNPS
# Trk B, sequence (Q16620 32-822): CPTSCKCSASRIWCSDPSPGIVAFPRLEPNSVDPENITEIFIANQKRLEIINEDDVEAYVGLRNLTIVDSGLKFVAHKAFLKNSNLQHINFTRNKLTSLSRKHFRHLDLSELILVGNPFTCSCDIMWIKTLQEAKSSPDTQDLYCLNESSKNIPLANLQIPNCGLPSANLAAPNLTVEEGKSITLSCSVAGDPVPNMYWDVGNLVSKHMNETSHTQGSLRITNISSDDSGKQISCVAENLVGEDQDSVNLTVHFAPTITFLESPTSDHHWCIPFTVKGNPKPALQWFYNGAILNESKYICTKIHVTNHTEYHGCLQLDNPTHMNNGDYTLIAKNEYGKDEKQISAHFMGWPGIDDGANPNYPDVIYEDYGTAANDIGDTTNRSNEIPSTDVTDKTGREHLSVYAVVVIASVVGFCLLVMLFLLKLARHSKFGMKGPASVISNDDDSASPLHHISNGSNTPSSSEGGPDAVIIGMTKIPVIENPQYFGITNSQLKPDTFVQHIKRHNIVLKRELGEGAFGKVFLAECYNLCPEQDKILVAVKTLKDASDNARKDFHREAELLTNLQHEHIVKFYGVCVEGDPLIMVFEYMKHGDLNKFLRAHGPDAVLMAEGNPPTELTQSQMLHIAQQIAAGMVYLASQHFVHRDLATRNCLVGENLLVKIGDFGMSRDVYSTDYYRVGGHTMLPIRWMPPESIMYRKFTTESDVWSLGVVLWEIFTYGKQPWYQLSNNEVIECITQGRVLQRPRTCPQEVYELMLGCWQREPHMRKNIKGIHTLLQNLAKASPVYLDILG
# Trk C, sequence (Q16288 32-839): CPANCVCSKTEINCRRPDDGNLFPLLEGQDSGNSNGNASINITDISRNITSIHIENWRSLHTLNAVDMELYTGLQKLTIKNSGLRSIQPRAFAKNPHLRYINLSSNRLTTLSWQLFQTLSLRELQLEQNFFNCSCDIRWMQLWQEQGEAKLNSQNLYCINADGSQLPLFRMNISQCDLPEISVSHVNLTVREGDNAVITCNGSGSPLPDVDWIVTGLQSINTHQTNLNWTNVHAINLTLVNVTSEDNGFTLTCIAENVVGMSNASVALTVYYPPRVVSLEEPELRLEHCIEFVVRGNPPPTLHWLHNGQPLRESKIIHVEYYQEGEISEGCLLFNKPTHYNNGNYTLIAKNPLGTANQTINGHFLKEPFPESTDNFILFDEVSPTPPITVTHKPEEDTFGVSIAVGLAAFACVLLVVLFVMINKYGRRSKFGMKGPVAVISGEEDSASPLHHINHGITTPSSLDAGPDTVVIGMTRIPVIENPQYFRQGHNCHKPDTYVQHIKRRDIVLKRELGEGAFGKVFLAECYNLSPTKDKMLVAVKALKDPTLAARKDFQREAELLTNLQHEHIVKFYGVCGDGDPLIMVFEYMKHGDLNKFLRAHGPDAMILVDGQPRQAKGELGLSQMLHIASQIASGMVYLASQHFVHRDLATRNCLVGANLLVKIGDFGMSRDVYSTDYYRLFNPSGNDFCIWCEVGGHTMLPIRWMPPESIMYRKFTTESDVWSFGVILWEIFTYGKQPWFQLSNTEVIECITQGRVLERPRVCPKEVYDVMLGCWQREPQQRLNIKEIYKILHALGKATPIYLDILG
smiles,measurement,setting,value
"CN1CCN(C(=O)[C@@H]2CCCN2c2nc3c(c(Nc4cc(C5CCCC5)[nH]n4)n2)CCC3)CC1 [134b, (S)-(1-(4-(5-cyclopentyl-1H-pyrazol-3-ylamino)-6,7-dihydro-5H-cyclopenta[d]pyrimidin-2-yl)pyrrolidin-2-yl)(4-methylpiperazin-1-yl)methanone]",inhibition at 1 µM,activated IR,26%
same,inhibition at 3 µM,activated IR,36%
same,inhibition at 30 µM,activated IR,85%
same,pIC50,Trk B,7.51
same,pIC50,Trk A,6.47
same,inhibition at 1 µM,activated IGF-1R,16%
same,inhibition at 3 µM,activated IGF-1R,26%
same,inhibition at 10 µM,activated IGF-1R,55%
same,inhibition at 30 µM,activated IGF-1R,77%
same,pIC50,Trk C,8.32
"CC1(C)CCN(C(=O)[C@@H]2CCCN2c2nc3c(c(Nc4cc(C5CCCC5)n[nH]4)n2)CCC3)CC1 [135b, [(2S)-1-[4-[(3-cyclopentyl-1H-pyrazol-5-yl)amino]-6,7-dihydro-5H-cyclopenta[d]pyrimidin-2-yl]pyrrolidin-2-yl]-(4,4-dimethyl-1-piperidyl)methanone]",inhibition at 1 µM,activated IR,11%
same,inhibition at 3 µM,activated IR,26%
same,inhibition at 30 µM,activated IR,88%
same,pIC50,Trk B,9.00
same,pIC50,Trk A,7.92
same,inhibition at 1 µM,activated IGF-1R,12%
same,inhibition at 3 µM,activated IGF-1R,14%
same,inhibition at 10 µM,activated IGF-1R,43%
same,inhibition at 30 µM,activated IGF-1R,82%
same,pIC50,Trk C,8.60
"CN1CCN(C(=O)[C@H]2CCCN2c2nc3c(c(Nc4cc(C5CCCC5)[nH]n4)n2)CCC3)CC1 [134a, (R)-(1-(4-(5-cyclopentyl-1H-pyrazol-3-ylamino)-6,7-dihydro-5H-cyclopenta[d]pyrimidin-2-yl)pyrrolidin-2-yl)(4-methylpiperazin-1-yl)methanone]",inhibition at 1 µM,activated IR,80%
same,pIC50,Trk B,7.05
same,pIC50,Trk A,7.49
same,inhibition at 1 µM,activated IGF-1R,73%
same,pIC50,Trk C,7.35
"O=C([C@H]1CCCN1c1nc2c(c(Nc3cc(C4CCCC4)[nH]n3)n1)CCC2)N1CC(F)(F)C(F)(F)C1 [110a, (R)-(1-(4-((5-cyclopentyl-1H-pyrazol-3-yl)amino)-6,7-dihydro-5H-cyclopenta[d]pyrimidin-2-yl)pyrrolidin-2-yl)(3,3,4,4-tetrafluoropyrrolidin-1-yl)methanone]",inhibition at 1 µM,activated IR,32%
same,inhibition at 3 µM,activated IR,64%
same,inhibition at 30 µM,activated IR,97%
same,pIC50,Trk B,6.77
same,pIC50,Trk A,6.72
same,inhibition at 1 µM,activated IGF-1R,31%
same,inhibition at 3 µM,activated IGF-1R,61%
same,inhibition at 10 µM,activated IGF-1R,83%
same,inhibition at 30 µM,activated IGF-1R,96%
same,pIC50,Trk C,7.09
"CC(C)c1cc(Nc2nc(N3CCC[C@H]3C(=O)N3CCCC3)nc3c2CCC3)n[nH]1 [138b, (S)-(1-(4-((5-isopropyl-1H-pyrazol-3-yl)amino)-6,7-dihydro-5H-cyclopenta[d]pyrimidin-2-yl)pyrrolidin-2-yl)(pyrrolidin-1-yl)methanone]",inhibition at 1 µM,activated IR,21%
same,inhibition at 3 µM,activated IR,46%
same,inhibition at 30 µM,activated IR,92%
same,pIC50,Trk B,8.30
same,pIC50,Trk A,6.85
same,inhibition at 3 µM,activated IGF-1R,57%
same,inhibition at 10 µM,activated IGF-1R,80%
same,inhibition at 30 µM,activated IGF-1R,94%
same,pIC50,Trk C,8.85
"CN(C)C(=O)[C@H]1CCCN1c1nc2c(c(Nc3cc(C4CCOCC4)[nH]n3)n1)CCC2 [91a, (R)—N,N-dimethyl-1-(4-((5-(tetrahydro-2H-pyran-4-yl)-1H-pyrazol-3-yl)amino)-6,7-dihydro-5H-cyclopenta[d]pyrimidin-2-yl)pyrrolidine-2-carboxamide]",inhibition at 1 µM,activated IR,5%
same,inhibition at 3 µM,activated IR,16%
same,inhibition at 30 µM,activated IR,45%
same,pIC50,Trk B,6.39
same,pIC50,Trk A,5.84
same,inhibition at 1 µM,activated IGF-1R,6%
same,inhibition at 3 µM,activated IGF-1R,14%
same,inhibition at 10 µM,activated IGF-1R,14%
same,inhibition at 30 µM,activated IGF-1R,38%
same,pIC50,Trk C,6.74
